In ChEMBL document CHEMBL3885881, “DrugMatrix”:

Species: Rattus norvegicus
Experiment: DrugMatrix - Regimen: Daily Repeat
Assay type: toxicity, organism-based, Sprague-Dawley
Design: regimen Daily Repeat, gender Male, age 6-8 weeks
Conditions: in vivo, po, route oral GAVAGE, vehicle .5 % CMC; for ABSOLUTE BASOPHIL / ABSOLUTE EOSINOPHIL / ABSOLUTE LYMPHOCYTE / ABSOLUTE MONOCYTE / ABSOLUTE SEGMENTED NEUTROPHIL / BASOPHIL / EOSINOPHIL / ERYTHROCYTE COUNT / HEMATOCRIT / HEMOGLOBIN / LEUKOCYTE COUNT / LYMPHOCYTE / MEAN CORPUSCULAR HEMOGLOBIN / MEAN CORPUSCULAR HEMOGLOBIN CONCENTRATION / MEAN CORPUSCULAR VOLUME / MONOCYTE / NEUTROPHIL / NUCLEATED RED BLOOD CELLS / PLATELET COUNT: tissue Blood; for ALANINE AMINOTRANSFERASE / ALBUMIN / ALKALINE PHOSPHATASE / ASPARTATE AMINOTRANSFERASE / BLOOD UREA NITROGEN / CARBON DIOXIDE / CHLORIDE / CHOLESTEROL / CREATINE PHOSPHOKINASE / CREATININE / GLUCOSE / LACTATE DEHYDROGENASE / LIPASE / PHOSPHORUS / POTASSIUM / SODIUM / TOTAL BILIRUBIN / TOTAL PROTEIN / URIC ACID: tissue Plasma
[1] = 0 mg/kg, 72 h, dose level Control, time 3 day
[2] = 0 mg/kg, 120 h, dose level Control, time 5 day
[3] = […], 72 h, dose 0.83 mg/Kg, dose level Low, time 3 day
[4] = […], 120 h, dose 0.83 mg/Kg, dose level Low, time 5 day

SMILES: C[C@]12CC[C@@H]3c4ccc(O)cc4CC[C@H]3[C@@H]1C[C@@H](O)[C@@H]2O [ESTRIOL]
- ABSOLUTE BASOPHIL [1]: 0 CELLS/uL
- ABSOLUTE EOSINOPHIL [1]: 171.33 CELLS/uL
- ABSOLUTE LYMPHOCYTE [1]: 13776.5 CELLS/uL
- ABSOLUTE MONOCYTE [1]: 180.83 CELLS/uL
- ABSOLUTE SEGMENTED NEUTROPHIL [1]: 1121.33 CELLS/uL
- BASOPHIL [1]: 0%
- EOSINOPHIL [1]: 1%
- ERYTHROCYTE COUNT [1]: 5.56 x10E6/uL
- HEMATOCRIT [1]: 34.75%
- HEMOGLOBIN [1]: 13.68 G/DL
- LEUKOCYTE COUNT [1]: 15.25 x10E3/uL
- LYMPHOCYTE [1]: 90.17%
- MEAN CORPUSCULAR HEMOGLOBIN [1]: 24.6 pg
- MEAN CORPUSCULAR HEMOGLOBIN CONCENTRATION [1]: 39.4 G/DL
- MEAN CORPUSCULAR VOLUME [1]: 62.48 fL
- MONOCYTE [1]: 1.17%
- NEUTROPHIL [1]: 7.67%
- NUCLEATED RED BLOOD CELLS [1]: 0 /100WBC
- PLATELET COUNT [1]: 1342 x10E3/uL
- ALANINE AMINOTRANSFERASE [1]: 49.67 u/L
- ALBUMIN [1]: 4.15 G/DL
- ALKALINE PHOSPHATASE [1]: 346.83 u/L
- ASPARTATE AMINOTRANSFERASE [1]: 108.17 u/L
- BLOOD UREA NITROGEN [1]: 17.33 mg/dL
- CARBON DIOXIDE [1]: 25 mmol/L
- CHLORIDE [1]: 100.83 MEQ/L
- CHOLESTEROL [1]: 66.83 mg/dL
- CREATINE PHOSPHOKINASE [1]: 788 u/L
- CREATININE [1]: 0.18 mg/dL
- GLUCOSE [1]: 151.67 mg/dL
- LACTATE DEHYDROGENASE [1]: 982.5 u/L
- LIPASE [1]: 10.33 u/L
- PHOSPHORUS [1]: 11.23 mg/dL
- POTASSIUM [1]: 6.37 MEQ/L
- SODIUM [1]: 141.02 MEQ/L
- TOTAL BILIRUBIN [1]: 0.18 mg/dL
- TOTAL PROTEIN [1]: 5.9 G/DL
- URIC ACID [1]: 1.8 mg/dL
- ABSOLUTE BASOPHIL [2]: 0 CELLS/uL
- ABSOLUTE EOSINOPHIL [2]: 69 CELLS/uL
- ABSOLUTE LYMPHOCYTE [2]: 13632.83 CELLS/uL
- ABSOLUTE MONOCYTE [2]: 139.83 CELLS/uL
- ABSOLUTE SEGMENTED NEUTROPHIL [2]: 1225 CELLS/uL
- BASOPHIL [2]: 0%
- EOSINOPHIL [2]: 0.33%
- ERYTHROCYTE COUNT [2]: 5.52 x10E6/uL
- HEMATOCRIT [2]: 33.98%
- HEMOGLOBIN [2]: 13.22 G/DL
- LEUKOCYTE COUNT [2]: 15.07 x10E3/uL
- LYMPHOCYTE [2]: 90.83%
- MEAN CORPUSCULAR HEMOGLOBIN [2]: 23.95 pg
- MEAN CORPUSCULAR HEMOGLOBIN CONCENTRATION [2]: 38.9 G/DL
- MEAN CORPUSCULAR VOLUME [2]: 61.53 fL
- MONOCYTE [2]: 0.83%
- NEUTROPHIL [2]: 8%
- NUCLEATED RED BLOOD CELLS [2]: 0 /100WBC
- PLATELET COUNT [2]: 1196 x10E3/uL
- ALANINE AMINOTRANSFERASE [2]: 49.17 u/L
- ALBUMIN [2]: 4.2 G/DL
- ALKALINE PHOSPHATASE [2]: 352.33 u/L
- ASPARTATE AMINOTRANSFERASE [2]: 89.67 u/L
- BLOOD UREA NITROGEN [2]: 18 mg/dL
- CARBON DIOXIDE [2]: 27.67 mmol/L
- CHLORIDE [2]: 101 MEQ/L
- CHOLESTEROL [2]: 72.83 mg/dL
- CREATINE PHOSPHOKINASE [2]: 417.5 u/L
- CREATININE [2]: 0.18 mg/dL
- GLUCOSE [2]: 150.5 mg/dL
- LACTATE DEHYDROGENASE [2]: 517.33 u/L
- LIPASE [2]: 9 u/L
- PHOSPHORUS [2]: 11.87 mg/dL
- POTASSIUM [2]: 6.57 MEQ/L
- SODIUM [2]: 143.62 MEQ/L
- TOTAL BILIRUBIN [2]: 0.2 mg/dL
- TOTAL PROTEIN [2]: 6.08 G/DL
- URIC ACID [2]: 1.45 mg/dL
- ABSOLUTE BASOPHIL [3]: 0 CELLS/uL
- ABSOLUTE EOSINOPHIL [3]: 41 CELLS/uL
- ABSOLUTE LYMPHOCYTE [3]: 11813.33 CELLS/uL
- ABSOLUTE MONOCYTE [3]: 115.33 CELLS/uL
- ABSOLUTE SEGMENTED NEUTROPHIL [3]: 930.33 CELLS/uL
- BASOPHIL [3]: 0%
- EOSINOPHIL [3]: 0.33%
- ERYTHROCYTE COUNT [3]: 5.37 x10E6/uL
- HEMATOCRIT [3]: 33.8%
- HEMOGLOBIN [3]: 13.17 G/DL
- LEUKOCYTE COUNT [3]: 12.9 x10E3/uL
- LYMPHOCYTE [3]: 91.33%
- MEAN CORPUSCULAR HEMOGLOBIN [3]: 24.53 pg
- MEAN CORPUSCULAR HEMOGLOBIN CONCENTRATION [3]: 38.97 G/DL
- MEAN CORPUSCULAR VOLUME [3]: 62.9 fL
- MONOCYTE [3]: 1%
- NEUTROPHIL [3]: 7.33%
- NUCLEATED RED BLOOD CELLS [3]: 0 /100WBC
- PLATELET COUNT [3]: 1229.33 x10E3/uL
- ALANINE AMINOTRANSFERASE [3]: 41.67 u/L
- ALBUMIN [3]: 4.13 G/DL
- ALKALINE PHOSPHATASE [3]: 500 u/L
- ASPARTATE AMINOTRANSFERASE [3]: 89.33 u/L
- BLOOD UREA NITROGEN [3]: 17.67 mg/dL
- CARBON DIOXIDE [3]: 23.67 mmol/L
- CHLORIDE [3]: 103.67 MEQ/L
- CHOLESTEROL [3]: 36 mg/dL
- CREATINE PHOSPHOKINASE [3]: 654.33 u/L
- CREATININE [3]: 0.23 mg/dL
- GLUCOSE [3]: 162 mg/dL
- LACTATE DEHYDROGENASE [3]: 616.67 u/L
- LIPASE [3]: 10.67 u/L
- PHOSPHORUS [3]: 11.97 mg/dL
- POTASSIUM [3]: 6.03 MEQ/L
- SODIUM [3]: 144.8 MEQ/L
- TOTAL BILIRUBIN [3]: 0.17 mg/dL
- TOTAL PROTEIN [3]: 6 G/DL
- URIC ACID [3]: 1.6 mg/dL
- ABSOLUTE BASOPHIL [4]: 0 CELLS/uL
- ABSOLUTE EOSINOPHIL [4]: 0 CELLS/uL
- ABSOLUTE LYMPHOCYTE [4]: 12894 CELLS/uL
- ABSOLUTE MONOCYTE [4]: 233.33 CELLS/uL
- ABSOLUTE SEGMENTED NEUTROPHIL [4]: 972.67 CELLS/uL
- BASOPHIL [4]: 0%
- EOSINOPHIL [4]: 0%
- ERYTHROCYTE COUNT [4]: 5.98 x10E6/uL
- HEMATOCRIT [4]: 36.97%
- HEMOGLOBIN [4]: 13.8 G/DL
- LEUKOCYTE COUNT [4]: 14.1 x10E3/uL
- LYMPHOCYTE [4]: 91.33%
- MEAN CORPUSCULAR HEMOGLOBIN [4]: 23.07 pg
- MEAN CORPUSCULAR HEMOGLOBIN CONCENTRATION [4]: 37.33 G/DL
- MEAN CORPUSCULAR VOLUME [4]: 61.87 fL
- MONOCYTE [4]: 1.67%
- NEUTROPHIL [4]: 7%
- NUCLEATED RED BLOOD CELLS [4]: 0 /100WBC
- PLATELET COUNT [4]: 1068.67 x10E3/uL
- ALANINE AMINOTRANSFERASE [4]: 43.67 u/L
- ALBUMIN [4]: 4.23 G/DL
- ALKALINE PHOSPHATASE [4]: 477 u/L
- ASPARTATE AMINOTRANSFERASE [4]: 80.33 u/L
- BLOOD UREA NITROGEN [4]: 17.33 mg/dL
- CARBON DIOXIDE [4]: 26.33 mmol/L
- CHLORIDE [4]: 101.67 MEQ/L
- CHOLESTEROL [4]: 36.33 mg/dL
- CREATINE PHOSPHOKINASE [4]: 414 u/L
- CREATININE [4]: 0.19 mg/dL
- GLUCOSE [4]: 148.33 mg/dL
- LACTATE DEHYDROGENASE [4]: 577 u/L
- LIPASE [4]: 8.33 u/L
- PHOSPHORUS [4]: 10.9 mg/dL
- POTASSIUM [4]: 6.26 MEQ/L
- SODIUM [4]: 144.2 MEQ/L
- TOTAL BILIRUBIN [4]: 0.23 mg/dL
- TOTAL PROTEIN [4]: 6.3 G/DL
- URIC ACID [4]: 1.63 mg/dL
